Test results as given in PubChem BioAssay AID256 (DTP/NCI, 2004).
“And” between values parts separate entries of the source, which are not always exact repeats. Equal values may be shown once. Inconclusive results and toxic doses are left out.

System: CD2F1 mice, L1210 leukemia ip, survival T/C
Assay: NCI In Vivo Anticancer Drug Screen. Data for tumor model L1210 Leukemia (intraperitoneal) in CD2F1 (CDF1) mice
Details: higher = longer survival
Outline: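 Mice carrying a transplanted tumor received test compound or vehicle alone. The value is the measurement in the treated group divided by that in the vehicle-treated control group.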

O=C(O)C12CCC(CC1)CC2
T/C (endpoint: mean survival time, dose: 75.0 mg/kg/injection, schedule: Q01DX001 (ip), vehicle: other): 107 % of control
T/C (endpoint: mean survival time, dose: 150.0 mg/kg/injection, schedule: Q01DX001 (ip), vehicle: other): 104 % of control
T/C (endpoint: mean survival time, dose: 300.0 mg/kg/injection, schedule: Q01DX001 (ip), vehicle: other): 104 % of control

O=NNc1ccccn1
T/C (endpoint: mean survival time, dose: 8.0 mg/kg/injection, schedule: Q04DX003 (ip), vehicle: saline): 114 % of control
T/C (endpoint: median survival time, dose: 0.78 mg/kg/injection, schedule: Q01DX009 (ip), vehicle: saline): 104 % of control
T/C (endpoint: median survival time, dose: 1.56 mg/kg/injection, schedule: Q01DX005 (ip), vehicle: saline): 107 % of control
T/C (endpoint: median survival time, dose: 1.56 mg/kg/injection, schedule: Q01DX009 (ip), vehicle: saline): 106 % of control
T/C (endpoint: median survival time, dose: 3.12 mg/kg/injection, schedule: Q01DX005 (ip), vehicle: saline): 117 % of control and 110 % of control
T/C (endpoint: median survival time, dose: 3.12 mg/kg/injection, schedule: Q01DX009 (ip), vehicle: saline): 110 % of control
T/C (endpoint: median survival time, dose: 3.13 mg/kg/injection, schedule: Q01DX005 (ip), vehicle: saline): 122 % of control
T/C (endpoint: median survival time, dose: 6.25 mg/kg/injection, schedule: Q01DX005 (ip), vehicle: saline): 117 % of control
T/C (endpoint: median survival time, dose: 6.25 mg/kg/injection, schedule: Q01DX009 (ip), vehicle: saline): 119 % of control
T/C (endpoint: median survival time, dose: 12.5 mg/kg/injection, schedule: Q01DX005 (ip), vehicle: saline): 160 % of control
T/C (endpoint: median survival time, dose: 25.0 mg/kg/injection, schedule: Q01DX005 (ip), vehicle: saline): 184 % of control and 187 % of control
T/C (endpoint: median survival time, dose: 50.0 mg/kg/injection, schedule: Q01DX005 (ip), vehicle: saline): 96 % of control and 103 % of control

CCOC(=O)c1cc(C(=O)OCC)c2ccc(Br)ccc1-2
T/C (endpoint: mean survival time, dose: 100.0 mg/kg/injection, schedule: Q01DX001 (sc), vehicle: olive oil, sesame oil, peanut oil): 105 % of control
T/C (endpoint: mean survival time, dose: 200.0 mg/kg/injection, schedule: Q01DX001 (sc), vehicle: olive oil, sesame oil, peanut oil): 96 % of control
T/C (endpoint: mean survival time, dose: 400.0 mg/kg/injection, schedule: Q01DX001 (sc), vehicle: olive oil, sesame oil, peanut oil): 93 % of control

CCOC(=O)C(CCP(=O)(OCC)OCC)NC(=O)c1ccc(N(C)Cc2cnc3nc(N)nc(N)c3n2)cc1 (centres undefined)
T/C (endpoint: median survival time, dose: 0.38 mg/kg/injection, schedule: Q01DX009 (ip), vehicle: saline): 101 % of control
T/C (endpoint: median survival time, dose: 0.75 mg/kg/injection, schedule: Q01DX009 (ip), vehicle: saline): 102 % of control
T/C (endpoint: median survival time, dose: 1.5 mg/kg/injection, schedule: Q01DX009 (ip), vehicle: saline): 102 % of control
T/C (endpoint: median survival time, dose: 3.0 mg/kg/injection, schedule: Q01DX009 (ip), vehicle: saline): 102 % of control
T/C (endpoint: median survival time, dose: 6.0 mg/kg/injection, schedule: Q01DX009 (ip), vehicle: saline): 101 % of control
T/C (endpoint: median survival time, dose: 12.0 mg/kg/injection, schedule: Q01DX009 (ip), vehicle: saline): 102 % of control
